Holding throughout (assay type): cell-based, hepatitis C virus
Test [1] deals with HCVcc infected Huh7 cells. The test is described as follows: HCV replication, GRIM19 overexpression combined with DGAT-1 inhibitor. Conditions: 40 μM compound of Formula 1 simultaneously with GRIM19 overexpression in HCVcc infected Huh7 cells (FIG. 9).
The test system of a further test is HCV. The test is described as follows: HCV RNA copies, GRIM19 overexpression combined with metformin. The note with it: transfection with pcDNA3_GRIM19 plus metformin (FIG. 8). The text has this:
In this regard, a change in HCV RNA copies was examined in the case of administration of metformin (Sigama Aldrich, Cat. D150959), an activator of AMP-activated protein kinase (AMPK) inhibiting the activity of ACC, in combination.

The subject of test [2] is HCVcc infected Huh7 cells. The test is described as follows: HCV RNA copies, GRIM19 overexpression and/or sofosbuvir in in vitro HCV infection model. Conditions: transfection with pcDNA3_GRIM19 plus sofosbuvir (FIG. 10). Here is the method:
HCVcc infected Huh7 cells were transfected with pcDNA3_GRIM19 using FUGENE HD, as in Example 3 above, the cells were treated with sofosbuvir (PharmaBLOCK R&D Co. Ltd.) (Formula 2):
[drawing 6] a compound inhibiting RNA-dependent RNA polymerase activity of HCV, or the cells were transfected with pcDNA3_GRIM19 and treated with sofosbuvir. Then, a change in HCV RNA copies was evaluated.

For test [3], the system named is Huh7 cells infected with HCVcc. The test is described as follows: HCV RNA level after direct treatment with cell permeable GRIM19 domain peptides. Conditions: 10 μM peptide for 48 hours (FIG. 12). Here is the method: In order to confirm whether an anti-HCV effect is shown when penetrating each domain itself of GRIM19 protein into cells, the effect was evaluated in in vitro HCV infection model by synthesizing peptides in which cell permeable peptide sequences (CP) bind to N-terminal of each domain of GRIM19 of Example 8. The sequences of each domain of GRIM19 comprising the synthesized cell permeable peptide sequences (CP) were analyzed in Table 4 below.
After treating Huh7 cells infected with HCVcc through in vitro HCV infection model of Example 2 with 10 μM of CP-GRIM19-D1, CP-GRIM19-D2, and CP-GRIM19-D3 for 48 hours, the level of RNA in HCV was examined.

In test [4] the test system is in vitro HCV infection model (HCVcc infected Huh7 cells). The test is described as follows: HCV RNA level after transfection with expression vectors for GRIM19 domains in in vitro HCV infection model. The note with it: overexpression of the domain by transfection with expression vector (FIG. 11b). The procedure:
An expression vector which can express the […], GRIM19-D2 (aa 37-72), GRIM19-D3 (aa 73-101), and GRIM19-D4 (aa 102-144) above was prepared, and the effect of each domain was evaluated in in vitro HCV infection model in Example 2.
In order to prepare the expression vector, the gene for each domain of GRIM19 was obtained through PCR with template of the vector expressing pcDNA3_GRIM19, and each domain was subcloned into pCMV-3Tag-3A vector (Agilent Technologies, Inc.) using restriction sites of restriction enzymes EcoRI and SalI. For GRIM19-D2, GRIM19-D3, and GRIM19-D4 to be expressed in the vector, a start codon was added prior to 5′ of the actually corresponding gene sequence of GRIM19. Accordingly, for each protein fragment, methionine was added prior to the N terminus of the actually corresponding amino acid sequence of GRIM19.

No end group written: not given here.

Regarding `O=C(Nc1ccccc1)Nc1ccc(-c2ccc(C(=O)[C@@H]3CCC[C@H]3C(=O)O)cc2)cc1` [A922500], in test [1], the “effect of the combination on HCV replication” value is on record as “synergistic effect of inhibiting HCV replication”.
For `CN(C)C(=N)N=C(N)N` [metformin], in the test on HCV, the “effect of the combination on HCV” value is “synergistic effect of inhibiting HCV” and the “increase in HCV RNA compared with treatment with metformin alone” value was “considerably lower”.
`CC(C)OC(=O)[C@H](C)N[P@](=O)(OC[C@H]1O[C@@H](n2ccc(=O)[nH]c2=O)[C@](C)(F)[C@@H]1O)Oc1ccccc1` [sofosbuvir]: in test [2], the “effect of the combination on HCV” value is “synergistic effect of inhibiting HCV” and the “lower increase in HCV RNA than treatment with sofosbuvir alone” value is reported as at least 45%.
For “CP-GRIM19-D1: synthesized peptide, cell permeable peptide sequence (CP) at N-terminal of GRIM19 domain 1, SEQ ID NO: 14 (RRRRRRRRRMAASKVKQDMPPPGGYGPIDYKRNLPRRGLSGYSML; CP-GRIM19-D1)”, the “level of HCV RNA” value in test [3] is “significantly decreased”.
Regarding “CP-GRIM19-D2: synthesized peptide, cell permeable peptide sequence (CP) at N-terminal of GRIM19 domain 2, SEQ ID NO: 15 (RRRRRRRRRAIGIGTLIYGHWSIMKWNRERRRLQIEDFEARIALL; CP-GRIM19-D2)”, the “level of HCV RNA” value in test [3] is listed as “significantly decreased”.
“CP-GRIM19-D3: synthesized peptide, cell permeable peptide sequence (CP) at N-terminal of GRIM19 domain 3, SEQ ID NO: 16 (RRRRRRRRRPLLQAETDRRTLQMLRENLEEEAIIMKDV; CP-GRIM19-D3)”: the “level of HCV RNA” value in test [3] is reported as “significantly decreased”.
As for “GRIM19-D1: GRIM19 protein fragment aa 1-36 (SEQ ID NO: 6), expressed from pCMV-3Tag-3A vector (MAASKVKQDMPPPGGYGPIDYKRNLPRRGLSGYSML; also: 3Tag vector tags (pCMV-3Tag-3A))”, the “level of HCV RNA” value in test [4] was “significantly decreased”.
In the case of “GRIM19-D2: GRIM19 protein fragment aa 37-72 (SEQ ID NO: 8), expressed from pCMV-3Tag-3A vector (MAIGIGTLIYGHWSIMKWNRERRRLQIEDFEARIALL; also: 3Tag vector tags, position not given here)”, in test [4], the “level of HCV RNA” value is on record as “significantly decreased”.
“GRIM19-D3: GRIM19 protein fragment aa 73-101 (SEQ ID NO: 10), expressed from pCMV-3Tag-3A vector (MPLLQAETDRRTLQMLRENLEEEAIIMKDV; also: 3Tag vector tags, position not given here)”: the “level of HCV RNA” value in test [4] is reported as “significantly decreased”.
On to “GRIM19-D4: GRIM19 protein fragment aa 102-144 (SEQ ID NO: 12), expressed from pCMV-3Tag-3A vector (MDWKVGESVFHTTRWVPPLIGELYGLRTTEEALHASHGFMWYT; also: 3Tag vector tags (pCMV-3Tag-3A))”, for which the “level of HCV RNA” value in test [4] is “significantly decreased”.

For the origin of these results see patent US10195166B2, “Methods for treating hepatitis C virus infectious disease” (priority 2013, dated 2019).
